IC50 data for 16 compounds are collected here from patent US11364248B2 (AMGEN INC., priority 2017, dated 2022).

Test [1] concerns OPM-2. Put plainly: Cell Viability Assay (OPM-2 10 FBS). The test is classed as cell-based, human. The settings on record: OPM-2 cells, CellTiter-Glo, read-out: OPM-2 10% FBS IC50 IP. As for the experimental part: Cell Viability Assay (OPM-2 10 FBS)
The human multiple myeloma cell line, OPM-2, was cultured in complete growth medium containing RPMI 1640 and 10% fetal bovine serum (FBS). Cells were seeded into 384-well plates at 3000 cells/well density in complete growth medium containing 10% FBS, and incubated for 16 h with serially diluted test compounds in a 37° C. incubator with 5% CO2. Cell viability was tested using CellTiter-Glo® assay (Promega, Madison, Wis.) according to the manufacturer recommendations. Luminescence was determined using an EnVision® Multilabel plate reader 25 min after the addition of detection reagent. IC50 values were then calculated with Xlfit using a logistical 4-parameter fit model in GraphPad Prism (GraphPad Software, San Diego, Calif.) or in Genedata Screener® (Genedata, Basel, Switzerland).

Test [2] concerns the target Mcl-1/Bim interaction (Homo sapiens (Human), UniProt Q07820). Put plainly: Cell Free Mcl-1: Bim Affinity Assay (Mcl-1 HTRF). The following applies: TR-FRET, recombinant human Mcl-1(171-327), biotin-Bim(51-76); read-out: Mel-1 HTRF IC50. The test is classed as binding. The procedure: Cell Free Mcl-1: Bim Affinity Assay (Mcl-1 HTRF)
The inhibition of the Mcl-1/Bim interaction was measured using a time-resolved fluorescence resonance energy transfer (TR-FRET) assay. The recombinant human Mcl-1 (C-terminally 6×His tagged Mcl-1 containing residues 171-327) was generated at Amgen Inc (Thousand Oaks, Calif.). A biotinylated peptide derived from human Bim (residues 51-76) was purchased from CPC Scientific (San Jose, Calif.). The TR-FRET assay was conducted in a 384-well white OptiPlate™ (PerkinElmer, Waltham, Mass.) in a total volume of 40 μL. The reaction mixture contained 0.1 nM Mcl-1(171-327), 0.05 nM biotin-Bim(51-76), 0.05 nM LANCER Eu-W1024 Anti-6×His (PerkinElmer), 0.072 nM Streptavidin-Xlent (Cisbio, Bedford, Mass.), and serially diluted test compounds in the binding buffer of 20 mM Hepes, pH 7.5, 150 mM NaCl, 0.016 mM Brij©35, and 1 mM dithiothreitol. Test compounds were pre-incubated with Mcl-1(171-327) and biotin-Bim (51-76) for 60 min before addition of the detection mixture (LANCE Eu-W1024 Anti-6×His and Streptavidin-Xlent). The reaction plates were further incubated overnight and then were read on an Envision® multimode reader (PerkinElmer). Fluorescence signals were measured at 620 nm (40-nm bandwidth) and 665 nm (7.5-nm bandwidth) with a 60 μs delay after excitation at 320 nm (75-nm bandwidth). The signal ratio at 665/620 nm corresponded to the Mcl-1/Bim interaction and was used in all data analyses. The IC50 values of test compounds were determined from duplicate data by analyzing competition curves using a four-parameter sigmoidal model in GraphPad Prism (GraphPad Software, San Diego, Calif.) or in Genedata Screener® (Genedata, Basel, Switzerland).
On the technique in general: Time-resolved FRET reads energy transfer from a long-lived donor to a nearby acceptor.

The structures appear in SMILES notation. Read-outs that look alike come from different tables or passages of the source.

Sequence of Mcl-1/Bim interaction (Q07820 171-327): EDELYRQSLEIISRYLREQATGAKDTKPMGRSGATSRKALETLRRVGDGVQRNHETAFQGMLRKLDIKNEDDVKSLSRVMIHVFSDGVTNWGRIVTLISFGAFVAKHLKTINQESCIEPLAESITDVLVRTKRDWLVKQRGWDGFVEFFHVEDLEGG

As for `C[C@@H]1[C@@H](C)CCC[C@H]([C@H]2OC[C@@H](N3CC4(COC4)C3)CO2)[C@@H]2CC[C@H]2CN2C[C@@]3(CCCc4cc(Cl)ccc43)COc3ccc(cc32)C(=O)NS1(=O)=O` [Example 60, (1S,3′R,6′R,7′S,11′S,12′R)-6-chloro-11′,12′-dimethyl-7′-(cis-5-(2-oxa-6-azaspiro[3.3]hept-6-yl)-1,3-dioxan-2-yl)-3,4-dihydro-2H,15′H-spiro[naphthalene-1,22′-[20]oxa[13]thia[1,14]diazatetracyclo [14.7.2.0~3,6~.0~19,24~]pentacosa[16,18,24]trien]-15′-one 13′,13′-dioxide], the IC50 in test [1] (Homo sapiens, OPM-2, 16 h) was 610 nM; in test [2] it was 0.897 nM.
On to `C[C@@H]1[C@@H](C)CCCC(C2OCC(CO)(N(C)C)CO2)[C@@H]2CC[C@H]2CN2C[C@@]3(CCCc4cc(Cl)ccc43)COc3ccc(cc32)C(=O)NS1(=O)=O` (single isomer, unassigned) [Example 86], for which the IC50 is 178 nM in test [1] (Homo sapiens, OPM-2, 16 h) and 0.448 nM in test [2].
As to `C[C@@H]1[C@@H](C)CCC[C@H]([C@H]2OC[C@H](N3C(=O)c4ccccc4C3=O)CO2)[C@@H]2CC[C@H]2CN2C[C@@]3(CCCc4cc(Cl)ccc43)COc3ccc(cc32)C(=O)NS1(=O)=O` (relative stereo) [Example 45], the half-maximal inhibitory concentration (IC50) in test [2] was found to be 4.68 nM.
Take `C[C@@H]1[C@@H](C)CCC[C@H]([C@H]2OC[C@H](O)CO2)[C@@H]2CC[C@H]2CN2C[C@@]3(CCCc4cc(Cl)ccc43)COc3ccc(cc32)C(=O)NS1(=O)=O` [Example 12, (1S,3′R,6′R,7′S,11′S,12′R)-6-chloro-7′-(trans-5-hydroxy-1,3-dioxan-2-yl)-11′,12′-dimethyl-3,4-dihydro-2H,15′H-spiro[naphthalene-1,22′-[20]oxa[13]thia[1,14]diazatetracyclo [14.7.2.0~3,6~.0~19,24~]pentacosa[16,18,24]trien]-15′-one 13′,13′-dioxide]: the IC50 amounted to 668 nM in test [1] (16 h) and 0.382 nM in test [2].
Consider `C[C@@H]1[C@@H](C)C/C=C/[C@@H]([C@H]2OC[C@H](N(C)C)CO2)[C@@H]2CC[C@H]2CN2C[C@@]3(CCCc4cc(Cl)ccc43)COc3ccc(cc32)C(=O)NS1(=O)=O` (relative stereo) [Example 96], for which the IC50 came out at 314 nM in test [1] (16 h) and 0.459 nM in test [2].
`C[C@@H]1[C@@H](C)CCC[C@@H]([C@H]2OC[C@H](CN(C)C)O2)[C@@H]2CC[C@H]2CN2C[C@@]3(CCCc4cc(Cl)ccc43)COc3ccc(cc32)C(=O)NS1(=O)=O` (single isomer, unassigned) [Example 33]: the IC50 in test [1] (16 h) is 319 nM; in test [2], 0.612 nM.
As to `CN[C@H]1CO[C@@H]([C@H]2CCC[C@H](C)[C@@H](C)S(=O)(=O)NC(=O)c3ccc4c(c3)N(C[C@@H]3CC[C@H]32)C[C@@]2(CCCc3cc(Cl)ccc32)CO4)OC1` (relative stereo) [Example 41], the values for the IC50 in test [1] (16 h) and in test [2] were 7070 nM and 7.99 nM, respectively.
As to `C[C@@H]1[C@@H](C)CCC[C@H]([C@H]2OC[C@@H](N3CCCC3)CO2)[C@@H]2CC[C@H]2CN2C[C@@]3(CCCc4cc(Cl)ccc43)COc3ccc(cc32)C(=O)NS1(=O)=O` [Example 22, (1S,3′R,6′R,7′S,11′S,12′R)-6-chloro-11′,12′-dimethyl-7′-(cis-5-(1-pyrrolidinyl)-1,3-dioxan-2-yl)-3,4-dihydro-2H,15′H-spiro[naphthalene-1,22′-[20]oxa[13]thia[1,14]diazatetracyclo [14.7.2.0~3,6~.0~19,24~]pentacosa[16,18,24]trien]-15′-one 13′,13′-dioxide], the IC50 in test [1] (16 h) was 65 nM; in test [2] it was 0.444 nM.
On to `C[C@@H]1[C@@H](C)CCC[C@@H]([C@H]2OC[C@@H](N3CC(Cl)C3)CO2)[C@@H]2CC[C@H]2CN2C[C@@]3(CCCc4cc(Cl)ccc43)COc3ccc(cc32)C(=O)NS1(=O)=O` (single isomer, unassigned) [Example 55], for which the values for the IC50 in test [1] (16 h) and in test [2] were 465 nM and 0.742 nM, respectively.
In the case of `CC(=O)N1C[C@@H]2O[C@@H]([C@H]3CCC[C@H](C)[C@@H](C)S(=O)(=O)NC(=O)c4ccc5c(c4)N(C[C@@H]4CC[C@H]43)C[C@@]3(CCCc4cc(Cl)ccc43)CO5)O[C@@H]2C1` [Example 38, (1S,3′R,6′R,7′S,11′S,12′R)-7′-((2r,3aR,6aS)-5-acetyltetrahydro-3aH-[1,3]dioxolo[4,5-c]pyrrol-2-yl)-6-chloro-11′,12′-dimethyl-3,4-dihydro-2H,15′H-spiro[naphthalene-1,22′-[20]oxa[13]thia[1,14]diazatetracyclo [14.7.2.0~3,6~.0~19,24~]pentacosa[16,18,24]trien]-15′-one 13′,13′-dioxide], the IC50 in test [1] (16 h) is 819 nM; in test [2] it was 0.537 nM.
`CC(=O)N1C[C@@H]2O[C@@H]([C@H]3CCC[C@H](C)[C@@H](C)S(=O)(=O)NC(=O)c4ccc5c(c4)N(C[C@@H]4CC[C@H]43)C[C@@]3(CCCc4cc(Cl)ccc43)CO5)O[C@@H]2C1` [Example 36, (1S,3′R,6′R,7′S,11′S,12′R)-7′-((2r,3aR,6aS)-5-acetyltetrahydro-3aH-[1,3]dioxolo[4,5-c]pyrrol-2-yl)-6-chloro-11′,12′-dimethyl-3,4-dihydro-2H,15′H-spiro[naphthalene-1,22′-[20]oxa[13]thia[1,14]diazatetracyclo [14.7.2.0~3,6~.0~19,24~]pentacosa[16,18,24]trien]-15′-one 13′,13′-dioxide]: the values for the IC50 in test [1] (16 h) and in test [2] were 169 nM and 0.217 nM, respectively.
With `CC(=O)N1C[C@@H]2O[C@@H]([C@H]3CCC[C@H](C)[C@@H](C)S(=O)(=O)NC(=O)c4ccc5c(c4)N(C[C@@H]4CC[C@H]43)C[C@@]3(CCCc4cc(Cl)ccc43)CO5)O[C@@H]2C1` (single isomer, unassigned) [Example 39], the IC50 in test [1] (16 h) worked out at 578 nM; in test [2], 0.375 nM.
Take `COC[C@@H]1[C@@H](C)CCC[C@H]([C@H]2OC[C@@H](N(C)C)CO2)[C@@H]2CC[C@H]2CN2C[C@@]3(CCCc4cc(Cl)ccc43)COc3ccc(cc32)C(=O)NS1(=O)=O` [Example 91, (1S,3′R,6′R,7′S,11′S,12′S)-6-chloro-7′-(cis-5-(dimethylamino)-1,3-dioxan-2-yl)-12′-(methoxymethyl)-11′-methyl-3,4-dihydro-2H,15′H-spiro[naphthalene-1,22′-[20]oxa[13]thia[1,14]diazatetracyclo [14.7.2.0~3,6~.0~19,24~]pentacosa[16,18,24]trien]-15′-one 13′,13′-dioxide]: in test [1] (16 h), the IC50 is 47 nM.
On the same count and under the same terms, under `C[C@@H]1[C@@H](C)CCC[C@H]([C@H]2OC[C@@H](N3CC(N(C)C)C3)CO2)[C@@H]2CC[C@H]2CN2C[C@@]3(CCCc4cc(Cl)ccc43)COc3ccc(cc32)C(=O)NS1(=O)=O` [Example 67, (1S,3′R,6′R,7′S,11′S,12′R)-6-chloro-7′-(cis-5-(3-(dimethylamino)-1-azetidinyl)-1,3-dioxan-2-yl)-11′,12′-dimethyl-3,4-dihydro-2H,15′H-spiro[naphthalene-1,22′-[20]oxa[13]thia[1,14]diazatetracyclo [14.7.2.0~3,6~.0~19,24~]pentacosa[16,18,24]trien]-15′-one 13′,13′-dioxide] stands 220 nM; under `C[C@@H]1[C@@H](C)CCC[C@H]([C@H]2OC[C@@H](N(C)C)CO2)[C@@H]2CC[C@H]2CN2C[C@@]3(CCCc4cc(Cl)ccc43)COc3ccc(nc32)C(=O)NS1(=O)=O` (stereo in doubt) [Example 93, (1S,3′R,6′R,7′S,11′S,12′R)-6-chloro-7′-(cis-5-(dimethylamino)-1,3-dioxan-2-yl)-11′,12′-dimethyl-3,4-dihydro-2H,15′H-spiro[naphthalene-1,22′-[20]oxo[13]thia[1,14,25]triazatetracyclo [14.7.2.0~3,6~.0~19,24~]pentacosa[16,18,24]trien]-15′-one 13′,13′-dioxide], 34 nM; under `C[C@@H]1[C@@H](C)CCC[C@H]([C@H]2OC[C@@H](N(C)C)CO2)[C@@H]2CC[C@H]2CN2C[C@@]3(CCCc4cc(Cl)ccc43)COc3ccc(nc32)C(=O)NS1(=O)=O` (stereo in doubt) [Example 94], 257 nM.

The IC50 is the point on the concentration scale where inhibition reaches its midpoint.
